The values that follow come from US5747463A, “Malonate derivatives of glycolipids as cell adhesion inhibitors” (Bristol-Myers Squibb Company, priority 1996, dated 1998).

The IC50 is the concentration that inhibits the measured activity by half.

Experiment [1] relates to platelet: HL-60 cell adhesion. As to the kind of experiment: HL-60 Platelet Cell Adhesion Assay. Format: cell-based. Conditions: 0.5 h; thrombin-activated human platelets: HL-60 5:1, 30 minutes at room temperature; read-out: P-selectin HL-60 Platelets IC50. The method, then:
HL-60 cells, obtained from American Type Culture Collection, were cultured in RPMI 1640 medium (GIBCO) supplemented with 20% fetal calf serum (Sigma) and 50 μg/ml gentamicin (GIBCO). Cells in log phase growth were harvested, washed and resuspended in Tyrodes buffer containing 5 mM HEPES and 0.2% bovine serum albumin and were fixed with 1% buffered formalin.
Blood from normal human donors was anticoagulated with citrate, layered over 1-Step Platelets (Accurate Chemical Co.) and centrifuged at 350 g for 20 minutes at room temperature. The platelet band was collected, diluted in 2 volumes of Tyrode's Buffer with 5 mM HEPES, 10 mM EDTA, and 0.2% BSA (pH 7.4) (THEB) and centrifuged at 600 g for 10 minutes. The platelet pellet was resuspended in THEB and incubated at room temperature for 1 hour. Calcein-acetoxy methylester (Calcein-Am, Molecular Probes) was added to the platelets at a final concentration of 10 μM and incubated for 10 minutes at 37° C. to label the platelets. Without washing, the platelets were counted on a Coulter counter model ZM, and the concentration was adjusted to 1×10^7 /ml. The platelets were activated with 2 U/ml of human thrombin for 10 minutes in Tyrode's containing 2 mM CaCl2, 5 mM HEPES, and 0.2% BSA (pH 7.4) (THB) at 37° C. and immediately fixed with 1% buffered formalin for 1 to 2 hours at room temperature. A small aliquot of labeled platelets was removed before activation and designated as non-activated.
Both platelets and HL-60 were washed in a ≥25 fold excess volume of Hanks Balanced Salt Solution (HBSS), resuspended in THB and counted. Cell concentrations were adjusted to 2×10^7 /ml for platelets and 4×10^6 /ml for HL-60, this ratio determined to be optimum for platelet: HL-60 cell adhesion. Compounds were incubated with 50 μl of platelets for 30 minutes at room temperature before addition of 50 μl of HL-60. This ratio of 5:1 platelets to HL-60 was incubated for 30 minutes at room temperature before addition of 0.2 ml of THB to increase the volume so the samples could be analyzed on a FACScan cytometer (Becton Dickinson). Non-activated platelets, and activated platelets with 10 mM EDTA were included as controls. Data were collected within a region set for the forward scatter channel corresponding to HL-60 size events.
The percent HL-60 cells which contained bound platelets was determined for each test condition. The inhibition of binding was determined by comparison to standards which were treated with vehicle alone (representing 0% inhibition) and standards whose specific binding had been blocked by the use of EDTA (representing 100% inhibition), by the following formula: [formula] where x=HL-60 cells containing bound platelets in the presence of the compound;
b=HL-60 cells containing bound platelets in the presence of EDTA;
a=HL-60 cells containing bound platelets in the presence of compound vehicle;
z=% inhibition of platelet: HL-60 cell adhesion

The next experiment has as its system rats. Kind of experiment: Reverse Passive Arthus Reaction in Rats (RPA). Conditions: single dose of 3 mg IV, rat, 4 hours after BSA. More on the design: key to RPA VP % Inhib. (vascular permeability): NS: no significant inhibition at 3 mg. Format: in vivo, male Sprague Dawley rats. An excerpt: The reverse passive Arthus reaction in rats is a modification of the method by Mulligan et al., as described in J. Clin. Invest, (1991) 88: 1396-1406. This is an experimental model in which the interaction of antigen-antibodycomplexes and complement leads to a severe vasculitis that is associated with edema, induration, erythema and hemorrhage. The interaction between the antigen-antibody complexes and complement leads to a localized influx of neutrophils. These neutrophils release a variety of mediators that are associated with tissue damage and vascular permeability. The localized inflammatory reaction is measured using different techniques i.e., vascular permeability and neutrophil influx which is evaluated both biochemically and microscopically.
Male Sprague Dawley specific pathogen-free rats with jugular vein cannulae (280-320 g, Hill Top Labs, Pennsylvania) are used in these studies. Animals are acclimated for at least 1 day and individually housed in stainless steel cages. The dorsal region of the rats is closely clipped 2 days prior to the experiments and divided into 4 sites on each side of the midline. Prior to all injections the rats are sedated with 0.4 ml per 300 gm rat of ketamine/rompun [1000 mg (10 ml) of ketamine HCl is mixed with 40 mg (2.0 ml) Rompun] administered IP and or inhalation anesthesia with metafane (methoxyflurane).
Bovin Serum Albumin (BSA) and rabbit polyclonal IgG rich in anti-BSA are purchased from Sigma Chemical Co. (St. Louis, Mo.). Radiolabelled ^125 I-BSA (spAct 1-5 μCi/μg) is purchased from Dupont NEN (Boston, Mass.).
Each rat is administered intradermal (ID) injection of (0.4 mg, 0.6 mg and 0.8 mg) anti-BSA in a volume of 100 μl per injection in normal saline. The ID injections are randomized near the mid dorsal region on both sides of the back bone. Immediately after the ID injections of the anti-BSA, the rats are administered intravenous (IV) injections of BSA (10 mg in 1.0 ml) in normal saline containing ^125 I labeled BSA (1 μCi/ml BSA or 5.0 μCi/kg body/wt) for quantification of dermal valscular injury. Anti-inflammatory agents such as inhibitors of adhesion molecules of the present invention are administered IV at a single dose of 3 mg immediately after BSA. Four (4) hours after the IV injection of BSA, the rats are anesthetized with metafane and 2 to 3 ml of blood is withdrawn via the cannula into an anticoagulant containing (EDTA or Heparin) tube and plasma separated and saved for neutrophil and albumin quantitation. The rats are killed and the skin surrounding the injection site (15 mm diameter) is punched out and weighed. The skin sample and a fixed volume of plasma (0.1 to 1.0 ml) is analyzed in a gamma-counter for ^125 I content. Skin samples from the contralateral side are processed and analyzed for myeloperoxidase activity (MPO) as a measure of neutrophil accumulation. As needed, samples are also processed for histological evaluation of the reacted sites.
The calculation of the plasma protein exudation into skin is made by determining the radioactivity in the tissue and relating this to the level of radioactive albumin in the blood at the time of sacrifice. […] [formula]
Percent inhibition of the test compound at 3 mg was determined as follows: [formula] Myeloperoxidase (MPO)
MPO is located in the azurophil granules of polymorphonuclear leukocytes (PMN). Because of its abundance in these cells (5% dry weight), this enzyme is used as a marker for tissue neutrophil content. For tissue MPO content, the method of Bradley, et al., was used as described in J. Invest. Dermatol. (1982) 78: 206-209. Biopsies from each treatment group were placed in plastic tubes (15×100 mm) containing 10 ml of 0.5% hexadecyltrimethylammonium bromide (HTAB) in 0.05M potassium phosphate buffer pH 6.0. The tissue was then homogenized with a Brinkmann Polytron homogenizer (10s). […]

The next experiment deals with T1, P-selectin (Homo sapiens, UniProt P16109).
T1 sequence (P16109 42-830): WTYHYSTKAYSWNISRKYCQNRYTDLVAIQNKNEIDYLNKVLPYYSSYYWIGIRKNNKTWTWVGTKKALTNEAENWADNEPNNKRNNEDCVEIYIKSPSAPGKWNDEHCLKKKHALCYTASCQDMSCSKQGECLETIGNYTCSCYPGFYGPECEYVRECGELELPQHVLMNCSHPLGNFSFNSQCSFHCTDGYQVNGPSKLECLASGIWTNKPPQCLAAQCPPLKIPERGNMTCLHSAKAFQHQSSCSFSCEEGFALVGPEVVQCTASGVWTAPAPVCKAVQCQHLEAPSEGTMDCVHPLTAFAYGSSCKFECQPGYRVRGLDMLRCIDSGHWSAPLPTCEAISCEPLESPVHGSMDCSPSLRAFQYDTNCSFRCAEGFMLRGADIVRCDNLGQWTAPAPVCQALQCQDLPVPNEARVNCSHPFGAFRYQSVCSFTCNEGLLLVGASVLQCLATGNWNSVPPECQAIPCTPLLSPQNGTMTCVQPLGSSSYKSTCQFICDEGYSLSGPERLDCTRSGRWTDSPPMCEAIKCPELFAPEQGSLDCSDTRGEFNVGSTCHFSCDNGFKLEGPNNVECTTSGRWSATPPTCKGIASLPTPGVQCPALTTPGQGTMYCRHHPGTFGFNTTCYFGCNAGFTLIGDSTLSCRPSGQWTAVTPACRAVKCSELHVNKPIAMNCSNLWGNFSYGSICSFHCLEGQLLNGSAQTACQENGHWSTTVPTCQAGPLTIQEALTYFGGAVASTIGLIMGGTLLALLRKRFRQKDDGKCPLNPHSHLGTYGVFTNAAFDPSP
To be noted: literature; cited from earlier work.

Consider `CCCCCCCCCCCCC/C=C/[C@@H](OC(=O)c1ccccc1)[C@H](CO[C@H]1O[C@H](CO)[C@H](OCCC(C(=O)O)C(=O)O)[C@H](O)[C@H]1O)NC(=O)CCCCCCCCCCCCCCC` [Example 24, (2S,3R,4E)-3-Benzoyloxy-2-hexadecanoylamino-1-[4-O-(3,3-di-carboxyprop-1-yl)-α-D-galactopyranosyloxy]-4-octadecene], for which, in experiment [1], the IC50 is 51 µM. In the experiment with rats, the “RPA MPO % Inhib. (myeloperoxidase)” value was 35% and the “RPA VP % Inhib. (vascular permeability)” value was 33.5%.

heparin: at P-selectin, the “inhibition of P-selectin mediated adhesion” value is on record as “inhibit P-selectin mediated adhesion”.

Take `CCCCCCCCCCCCC/C=C/[C@@H](OC(=O)c1ccccc1)[C@H](CO[C@@H]1O[C@H](CO)[C@H](O)[C@H](OC(=O)c2ccccc2)[C@H]1OCCCCC(C(=O)O)C(=O)O)NC(=O)CCCCCCCCCCCCCCC` [Example 18, (2S,3R,4E)-3-Benzoyloxy-2-hexadecanoylamino-1-[2-O-(5,5-di-carboxypent-1-yl)-3-O-benzoyl-β-D-galactopyranosyloxy]-4-octadecene]: the IC50 in experiment [1] came to 8.8 µM. Besides, in the experiment with rats, the “RPA MPO % Inhib. (myeloperoxidase)” value is given as 61.6% and the “RPA VP % Inhib. (vascular permeability)” value was 4.3%.

As to `CCCCCCCCCCCCC/C=C/[C@@H](OC(=O)c1ccccc1)[C@H](CO[C@@H]1O[C@H](CO)[C@H](O)[C@H](OCCCCC(C(=O)O)C(=O)O)[C@H]1O)NC(=O)CCCCCCCCCCCCCCC` [Example 14, (2S,3R,4E)-3-Benzoyloxy-2-hexadecanoylamino-1-[3-O-(5,5-di-carboxypent-1-yl)-β-D-galactopyranosyloxy]-4-octadecene], the IC50 in experiment [1] amounted to 45 µM. Moreover, in the experiment with rats, the “RPA MPO % Inhib. (myeloperoxidase)” value amounted to 30.9% and the “RPA VP % Inhib. (vascular permeability)” value is reported as 15.5%.

For the compound `CCCCCCCCCCCCC/C=C/[C@@H](OC(=O)c1ccccc1)[C@H](CO[C@H]1O[C@H](COCCC(C(=O)O)C(=O)O)[C@H](O)[C@H](O)[C@H]1O)NC(=O)CCCCCCCCCCCCCCC` [Example 6, (2S,3R,4E)-3-Benzoyloxy-2-hexadecanoylamino-1-[6-O-(3,3-di-carboxyprop-1-yl)-α-D-galactopyranosyloxy]-4-octadecene], in experiment [1], the IC50 worked out at 13 µM. Also, the “RPA MPO % Inhib. (myeloperoxidase)” value in the experiment with rats was determined as 25%. Besides, the “RPA VP % Inhib. (vascular permeability)” value with rats (printed as symbol) is on record as “NS”.

With dextran sulfate, the “inhibition of P-selectin mediated adhesion” value at P-selectin was “inhibit P-selectin mediated adhesion”.

For `CCCCCCCCCCCCC/C=C/[C@@H](OC(=O)c1ccccc1)[C@H](CO[C@H]1O[C@H](CO)[C@H](O)[C@H](OCCCCC(C(=O)O)C(=O)O)[C@H]1O)NC(=O)CCCCCCCCCCCCCCC` [Example 12, (2S,3R,4E)-3-Benzoyloxy-2-hexadecanoylamino-1-[3-O-(5,5-di-carboxypent-1-yl)-α-D-galactopyranosyloxy]-4-octadecene], the IC50 in experiment [1] is 22.9 µM. For the same compound, in the experiment on rats, the “RPA MPO % Inhib. (myeloperoxidase)” value is recorded as 82% and the “RPA VP % Inhib. (vascular permeability)” value is listed as 33%.

For fucoidan, the “inhibition of P-selectin mediated adhesion” value on P-selectin was “inhibit P-selectin mediated adhesion”.
